Source: US20210315893A1 (Galapagos NV, priority 2017, published 2021)

Legend:
S1PR2 = molecular target: T1, S1PR2 (Homo sapiens, UniProt O95136); test: S1PR2 binding assay (competition with radioactively labeled S1P, SpA); conditions: membranes from stable cell line over expressing S1PR2, SpA beads; read-out: S1P2 EC50 (nM), S1PR2 binding EC50
T1 construct: expressed in transfected cells
Experimental: The following assay can be used for determination of S1PR2 binding. The binding assay measures the potential to compete with radioactively labeled S1P for binding to the receptor.
The assay is performed in a96 well plate where the following reagents are added. First 50 μL compound is added into the assay plate, followed by addition of 100 μL ofa mixture consisting of membrane and Scintillation proximity Assay (SpA) beads [mixture consists […] membranes derived from stable cell line over expressing SPR2, 0.5 mg/well Polyvinyltoluene-Wheat Germ-Agglutinin (PVT-WGA) beads (Perkin Elmer, RPNQOO1)]. All components are diluted in assay buffer containing 20 mM Tris pH 7.5; 10 mM MgCl2; 100 mM NaCl; 0.4% BSA FAF; 1 mM Na3VO4) and incubated for 15 min until addition to the assay plate. Subsequently, 50 ul of radioactively labeled S1P is added to the wells (Sphingosine, D-erythro-[3-3H] 1-phosphate; ARC; ART0778). After an incubation for 2 h at room temperature, plates are centrifuged at 2000 rpm during 20 min. Plates are read on a Topcount reader (Perkin Elmer) immediately after centrifugation (readout time, 1 min/well).

[1] = molecular target: T2, human GPCR sphingosine 1-phosphate receptor 2 (Homo sapiens, UniProt O95136); test: S1PR2 antagonist Ca2+ flux assay; type: cell-based; conditions: antagonist mode, CHO-S1PR2 cells, S1P at EC80, Ca2+ fluorescence; read-out: S1P2 EC50 (nM), S1P2 antagonist EC50
T2 construct: host or cells: CHO
T2 sequence (O95136 whole entry): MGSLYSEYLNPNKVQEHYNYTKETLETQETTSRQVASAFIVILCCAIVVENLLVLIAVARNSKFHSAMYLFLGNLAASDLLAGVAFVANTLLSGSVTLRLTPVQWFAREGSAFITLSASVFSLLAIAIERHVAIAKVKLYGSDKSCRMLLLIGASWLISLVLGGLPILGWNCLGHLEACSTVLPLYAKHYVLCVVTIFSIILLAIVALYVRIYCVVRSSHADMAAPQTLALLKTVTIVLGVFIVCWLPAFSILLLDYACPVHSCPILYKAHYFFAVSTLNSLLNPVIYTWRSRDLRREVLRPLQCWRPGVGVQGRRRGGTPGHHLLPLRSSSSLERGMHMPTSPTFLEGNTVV
Experimental: Triggering of S1PR2 by administration of Sphingosine-1-phosphate leads to a transient increase in intracellular Ca^2+. The Ca^2+ flux assays are measuring the release of Ca^2+ intracellularly by use of a Ca^2+ sensitive fluorescent dye. The assay is firstly run in agonist mode (incubation of compounds alone) to ensure that the Ca^2+ released measured is not caused by the test compound having an agonistic effect. Then the assay is continued in antagonist mode (Sphingosine-1-Phosphate added to incubated medium containing the test compounds).
CHO cells stably overexpressing human GPCR sphingosine 1-phosphate receptor 2 (CHO-S1PR2 Perkin Elmer; ES-594-A) are seeded from a frozen stock in 384 wells sterile microplates (50 μL; 7,500 cells/well) and are incubated overnight at 37° C. and 5% CO2. The next day cells are washed twice with starvation medium (F-12 Ham's medium containing 0.1% BSA (Fatty acid free: FAF)) and left in 25 μL starvation medium for 1 h at 37° C., 5% CO2. After this starvation cells are incubated with 25 μL buffer containing the Ca^2+-sensitive fluorescent dye (0.5 mg Fluo8+125 mg Allura Red in 100 mL of 1% DMSO, in HBSS+20 mM Hepes+5 mM probenecid). The cells are incubated for an additional 1 h after which 10 μL compounds, diluted in HBSS buffer with 20 mM Hepes and 0.1% BSA (FAF), are added to the cells and intracellular Ca2+ changes are immediately measured by reading fluorescence during 3 min (FDSS/pCELL reader). The ratio of the maximal fluorescence over the background fluorescence before compound injection is used to determine compound response.
After readout of the agonist activity, the plates are incubated for 15 min at 37° C. and 5% CO2. Then, cells are stimulated with 10 μL Sphingosine-1-Phosphate (S1P) (Avanti Polar lipids-860492P) at its EC80 concentration. Intracellular Ca2+ changes are immediately measured by reading fluorescence during 3 min (FDSS/pCELL reader). The ratio of the maximal fluorescence over the background fluorescence before compound injection is used to determine compound response.
The obtained ratio's for agonist and antagonist readout were normalized versus vehicle and EC 100 of S1P ascontrols for agonist mode and versus vehicle and […]. From these normalized data EC50 of the compounds are derived.

T1 sequence (O95136 whole entry): as above

SMILES | EC50 (S1PR2) [nM] | EC50 [1] [nM]
CC1(C)OCC(Cn2nc(Cc3nc4cc(Cl)c(OC(F)(F)F)cc4[nH]3)c3ccccc3c2=O)O1 (stereo not drawn) [Compound 38, 4-[[6-chloro-5-(trifluoromethoxy)-1H-benzimidazol-2-yl]methyl]-2-[(2,2-dimethyl-1,3-dioxolan-4-yl)methyl]phthalazin-1-one] | 1210 | 1280
N#Cc1cc2[nH]c(Cc3nn(CC(=O)N4CCOCC4)c(=O)c4ccccc34)nc2c(Cl)c1OCC(F)F [Compound 53, 7-chloro-6-(2,2-difluoroethoxy)-2-[[3-(2-morpholino-2-oxo-ethyl)-4-oxo-phthalazin-1-yl]methyl]-3H-benzimidazole-5-carbonitrile] | – | 2360
CC1(Cn2nc(Cc3nc4cc(Cl)c(OC(F)(F)F)cc4[nH]3)c3ccccc3c2=O)COC1 [Compound 36, 4-[[6-chloro-5-(trifluoromethoxy)-1H-benzimidazol-2-yl]methyl]-2-[(3-methyloxetan-3-yl)methyl]phthalazin-1-one] | 100000 | ≥ 19900
O=c1c2ccccc2c(Cc2nc3cc(Cl)c(OC(F)(F)F)cc3[nH]2)nn1CC1CCCO1 (stereo not drawn) [Compound 34, 4-[[6-chloro-5-(trifluoromethoxy)-1H-benzimidazol-2-yl]methyl]-2-(THF-2-ylmethyl)phthalazin-1-one] | 5190 | 4340
N#Cc1cc2nc(Cc3nn(CC(=O)N4CCOCC45CCC5)c(=O)c4ccccc34)[nH]c2cc1OCC(F)F [Compound 189, 6-(2,2-difluoroethoxy)-2-[[3-[2-(6-oxa-9-azaspiro[3.5]nonan-9-yl)-2-oxo-ethyl]-4-oxo-phthalazin-1-yl]methyl]-1H-benzimidazole-5-carbonitrile] | 558 | 143
O=c1c2ccccc2c(Cc2nc3cc(Cl)c(OC(F)(F)F)cc3[nH]2)nn1CC1CCC1 [Compound 28, 4-[[6-chloro-5-(trifluoromethoxy)-1H-benzimidazol-2-yl]methyl]-2-(cyclobutylmethyl)phthalazin-1-one] | 33300 | 1490
CC(C)(C)C(=O)Cn1nc(Cc2nc3cc(Cl)c(OC(F)(F)F)cc3[nH]2)c2ccccc2c1=O [Compound 44, 4-[[6-chloro-5-(trifluoromethoxy)-1H-benzimidazol-2-yl]methyl]-2-(3,3-dimethyl-2-oxo-butyl)phthalazin-1-one] | – | 2090
CCOc1cc2[nH]c(Cc3nn(CC(=O)O)c(=O)c4ccccc34)nc2cc1C#N [Compound 138, 2-[4-[(5-cyano-6-ethoxy-1H-benzimidazol-2-yl)methyl]-1-oxo-phthalazin-2-yl]acetic acid] | – | 45
O=c1c2ccccc2c(Cc2nc3cc(Cl)c(OC(F)(F)F)cc3[nH]2)nn1C1CCC1 [Compound 26, 4-[[5-chloro-6-(trifluoromethoxy)-1H-benzimidazol-2-yl]methyl]-2-cyclobutyl-phthalazin-1-one] | – | 889
O=C(Cn1nc(Cc2nc3cc(OCC(F)F)c(Cl)cc3[nH]2)c2c(C3CC3)cccc2c1=O)N1CCOCC1 [Compound 48, 4-[[6-chloro-5-(2,2-difluoroethoxy)-1H-benzimidazol-2-yl]methyl]-5-cyclopropyl-2-(2-morpholino-2-oxo-ethyl)phthalazin-1-one] | – | 98.4
O=c1c2ccccc2c(Cc2nc3cc(Cl)c(OC(F)(F)F)cc3[nH]2)nn1C1CCCC1 [Compound 24, 4-[[5-chloro-6-(trifluoromethoxy)-1H-benzimidazol-2-yl]methyl]-2-cyclopentyl-phthalazin-1-one] | 8450 | –
O=c1c2ccccc2c(Cc2nc3cc(Cl)c(OC(F)(F)F)cc3[nH]2)nn1CC1CCCCO1 (stereo not drawn) [Compound 35, 4-[[6-chloro-5-(trifluoromethoxy)-1H-benzimidazol-2-yl]methyl]-2-(tetrahydropyran-2-ylmethyl)phthalazin-1-one] | 5410 | –
N#Cc1cc2[nH]c(Cc3nn(CC(=O)N4CCN(CCO)CC4)c(=O)c4ccccc34)nc2cc1OCC(F)F [Compound 225, 6-(2,2-difluoroethoxy)-2-[[3-[2-[4-(2-hydroxyethyl)piperazin-1-yl]-2-oxo-ethyl]-4-oxo-phthalazin-1-yl]methyl]-3H-benzimidazole-5-carbonitrile] | – | 388

Other lines, results leading:

EC50 (S1PR2) [nM] | EC50 [1] [nM] | SMILES
5240 | – | N#Cc1cc2[nH]c(Cc3nn(CC(=O)N4CCC(N5CCOCC5)CC4)c(=O)c4ccccc34)nc2cc1OCC(F)F [Compound 238, 6-(2,2-difluoroethoxy)-2-[[3-[2-(4-morpholino-1-piperidyl)-2-oxo-ethyl]-4-oxo-phthalazin-1-yl]methyl]-3H-benzimidazole-5-carbonitrile]
650 | 55.8 | CC(C)(O)C1CCCN(C(=O)Cn2nc(Cc3nc4cc(OCC(F)F)c(C#N)cc4[nH]3)c3ccccc3c2=O)C1 (stereo not drawn) [Compound 237, 6-(2,2-difluoroethoxy)-2-[[3-[2-[3-(1-hydroxy-1-methyl-ethyl)-1-piperidyl]-2-oxo-ethyl]-4-oxo-phthalazin-1-yl]methyl]-3H-benzimidazole-5-carbonitrile]
– | 9.39 | CC1(COc2cc3nc(Cc4nn(CC(=O)NS(C)(=O)=O)c(=O)c5ccccc45)[nH]c3cc2Cl)CC1 [Compound 250, 2-[4-[[6-chloro-5-[(1-methylcyclopropyl)methoxy]-1H-benzimidazol-2-yl]methyl]-1-oxo-phthalazin-2-yl]-N-methylsulfonyl-acetamide]
609 | 14.3 | CS(=O)(=O)NC(=O)Cn1nc(Cc2nc3cc(OCC(F)F)c(Cl)cc3[nH]2)c2cc(C#N)ccc2c1=O [Compound 245, 2-[4-[[6-chloro-5-(2,2-difluoroethoxy)-1H-benzimidazol-2-yl]methyl]-6-cyano-1-oxo-phthalazin-2-yl]-N-methylsulfonyl-acetamide]
2090 | 958 | CN(C)C(=O)C1CCN(C(=O)Cn2nc(Cc3nc4cc(OCC(F)F)c(C#N)cc4[nH]3)c3ccccc3c2=O)CC1 [Compound 236, 1-[2-[4-[[6-cyano-5-(2,2-difluoroethoxy)-1H-benzimidazol-2-yl]methyl]-1-oxo-phthalazin-2-yl]acetyl]-N,N-dimethyl-piperidine-4-carboxamide]
– | 89.6 | CS(=O)(=O)NC(=O)Cn1nc(Cc2nc3cc(OCC(F)F)c(F)cc3[nH]2)c2ccccc2c1=O [Compound 248, 2-[4-[[5-(2,2-difluoroethoxy)-6-fluoro-1H-benzimidazol-2-yl]methyl]-1-oxo-phthalazin-2-yl]-N-methylsulfonyl-acetamide]
– | ≥ 19900 | CCOc1ccc2nn(Cc3nn(CC(=O)O)c(=O)c4ccccc34)cc2c1Cl [Compound 254, 2-[4-[(4-chloro-5-ethoxy-indazol-2-yl)methyl]-1-oxo-phthalazin-2-yl]acetic acid]
– | 10.2 | CS(=O)(=O)NC(=O)Cn1nc(Cc2nc3cc(OCC4(C#N)CC4)c(Cl)cc3[nH]2)c2ccccc2c1=O [Compound 249, 2-[4-[[6-chloro-5-[(1-cyanocyclopropyl)methoxy]-1H-benzimidazol-2-yl]methyl]-1-oxo-phthalazin-2-yl]-N-methylsulfonyl-acetamide]
– | ≥ 19900 | CCOc1ccc2cn(Cc3nn(CC(=O)O)c(=O)c4ccccc34)nc2c1Cl [compound 22, 2-[4-[(7-chloro-6-ethoxy-indazol-2-yl)methyl]-1-oxo-phthalazin-2-yl]acetic acid]
